How the values were obtained:
[1] = tested on: monocyte CD163 expression; assay: CD163 expression on monocytes of cultured PBMCs, staining and flow cytometric analysis; format: cell-based, human; conditions: for increase of monocyte CD163 expression: PBMCs treated 24 hours, agent alone, 200 nM DEX, vs control media, p<0.01; for CD163 expression of cytokine given in combination with DEX over DEX treatment alone: PBMCs 24 hours
Experimental: To assess whether different cytokines could influence CD163 expression, freshly isolated PBMCs were cultured for 24 hours in the presence of various cytokines, 200 nM DEX (as a positive control for CD163 upregulation), or control media. The cells were then subjected to staining and flow cytometric analysis.
For cytokine treatment studies, isolated PBMCs were suspended in hepes buffered RPMI 1640/0.05% gentamicin/10% FBS at a concentration of 2.0×10^6 to 2.5×10^6 cells/ml and cultured in 96 well plates at 37° C. and 5% CO2 in the presence of various mediators (Table 1). Mononuclear cells were stained for flow cytometric analysis after 24 hours in culture unless otherwise indicated. This enhanced cell recovery because monocytes, which initially adhere to plastic vessels, transiently detach from culture wells at 24–48 hours.
All staining procedures were performed at 4 C. Briefly, cultured PBMCs were incubated with normal human IgG (6 mg/ml) to block Fc receptor-specific binding of mAbs and 30 μg/ml of the isotype control mAb P3 or a saturating amount of mAb MAC2-48 (20 μg/ml) for one hour. Cells were then washed and stained for one hour with 17.5 μg/ml FITC labeled goat F(ab=)2 anti-mouse Ig. The cells were again washed and fixed with 1% methanol free formalin.
Cell fluorescence of monocytes gated using forward and side scatter was analyzed using a Becton Dickenson FACScan (Franklin Lakes, N.J.). Mean fluorescence intensity (MFI) was calculated by subtracting the MFI of the P3 stained mononuclear cells from the MFI of the corresponding Mac 2-48 stained cells.

[2] = tested on: monocyte surface CD163; assay: Shedding of monocyte surface CD163 in vitro; format: cell-based, human; conditions: for shedding of surface CD163 from cells pre-treated with glucocorticoids plus LPS: subsequent treatment with the agent
Experimental: Therefore, like PMA, LPS is capable of inducing CD163 shedding. LPS-induced shedding occurred even with monocytes that had been cultured for 48 hours in DEX and thus had 5- to 10-fold higher levels of surface CD163 than freshly isolated monocytes. […] This LPS-conferred resistance to subsequent LPS-induced shedding of CD163 is similar to reported endotoxin pre-conditioning for resistance to subsequent inflammatory insults.

[3] = tested on: monocyte surface CD163; conditions: Droste et al. 1999; blocked by protease inhibitors; cited from earlier work
[4] = tested on: soluble CD163 in plasma; assay: Soluble CD163 in plasma of healthy volunteers after LPS bolus infusion (ELISA); format: in vivo, human; conditions: 4 ng/kg bolus infusion of LPS
Experimental: In order to provide for use of CD163 as a biomarker of inflammation, a method for detection of CD163 in biological samples such as plasma was developed. The assay of detection is an ELISA assay using a CD163-specific antibody such as MAC2-158 or MAC2-48 as the CD163 capture antibody and the commercially available biotinylated antibody RM3/1 as the CD163 detection antibody. Briefly, plates were coated with purified MAC2-158 or MAC2-48 antibody and incubated overnight at 4 C. After washing, non-specific binding was blocked by adding blocking buffer to each plate well and incubating for 30 minutes at room temperature. […]
In order to more closely mimic the in vivo inflammatory response to infection in a more controlled setting than the cardiac patients described above, healthy volunteers were administered a 4 ng/kg bolus infusion of LPS and monitored the levels of soluble CD163 in plasma. […] Levels of CD163 in plasma were measured using the assay of the present invention. […] Changes in levels of known acute phase proteins, glucocorticoids, and pro- and anti-inflammatory cytokines were also monitored in order to determine if their levels correlated with the appearance of soluble CD163 in plasma. […]
ELISA plates were coated, 100 μl per well, with 5 μg/ml purified MAC2-158 (coating buffer of 0.1 M NaHCO30.5 M NaCl, adjusted to pH 8.4 with HCl). […] The plates were read on a spectrophotometer at […].

[5] = tested on: CD163 expression; assay: Monocytes cultured with LPS and/or DEX, immunofluorescence detection of surface CD163; format: cell-based, human; conditions: monocytes cultured with LPS alone
Experimental: In addition to testing the effects of cytokines in combination with glucocorticoids on levels of CD163, studies were performed to examine the effects of glucocorticoids in combination with lipopolysaccharide (LPS). […] However, when monocytes were cultured for 48 hours with DEX combined with LPS, their was a synergistic increase in CD163 expression, where the effect of DEX alone was increased by more than 2-fold when LPS treatment was added.

[6] = tested on: CRP, TNFA, IL-6, IL-10, cortisol in plasma; assay: Plasma acute phase proteins, glucocorticoids and cytokines of healthy volunteers after LPS bolus infusion; format: in vivo, human; conditions: post LPS administration
Experimental: In order to more closely mimic the in vivo inflammatory response to infection in a more controlled setting than the cardiac patients described above, healthy volunteers were administered a 4 ng/kg bolus infusion of LPS and monitored the levels of soluble CD163 in plasma. […] Plasma samples were taken at baseline (before administration of LPS), and then at various time points after LPS infusion up to 72 hours after infusion initiation. Levels of CD163 in plasma were measured using the assay of the present invention. […] In the one volunteer where levels had declined at […], levels remained elevated up to 4 hours before returning to baseline levels by 8 hours. Changes in levels of known acute phase proteins, glucocorticoids, and pro- and anti-inflammatory cytokines were also monitored in order to determine if their levels correlated with the appearance of soluble CD163 in plasma. […] Plasma levels of TNFA, IL-6 and IL-10, all known to be produced following LPS infusion, peaked at 1, 2, and 4 hours post LPS administration, respectively. […] Therefore, CD163 acts as an early signaling event in the inflammatory response cascade.

[7] = tested on: CD163; assay: Western blots of monocyte lysates; format: cell-based, human

C[C@@H]1C[C@H]2[C@@H]3CCC4=CC(=O)C=C[C@]4(C)[C@@]3(F)[C@@H](O)C[C@]2(C)[C@@]1(O)C(=O)CO [DEX]
increase of monocyte CD163 expression [1]: ~7 fold

CCCCCCCCCCCCCC(=O)O[C@@H]1[C@@H](C)[C@@]2(O)[C@@H](C=C(CO)C[C@]3(O)C(=O)C(C)=C[C@@H]23)[C@@H]2C(C)(C)[C@]12OC(C)=O [PMA]
shedding of surface CD163 from cells pre-treated with glucocorticoids plus LPS [2]: remained sensitive
shedding of surface CD163 from monocytes in culture [3]: rapid shedding

GM-CSF
CD163 expression of cytokine given in combination with DEX over DEX treatment alone [1]: does not enhance CD163 expression

lipopolysaccharide [LPS]
increase of soluble CD163 levels in plasma compared to baseline [4]: ≤ 7 fold
time to shedding of monocyte surface CD163 ([2]; in vitro): ≤ 2 h
shedding of surface CD163 from cells pre-treated with glucocorticoids plus LPS [2]: largely resistant to shedding
CD163 detected on monocyte surface [5]: low levels of CD163
time at which plasma cortisol began to increase [6]: 4 h
time by which plasma CRP increased [6]: ≤ 8 h
time of peak of plasma CRP [6]: 24 h
time of peak of plasma IL-6 [6]: 2 h
time of peak of plasma IL-10 [6]: 4 h
time of peak of plasma TNFA [6]: 1 h
time of peak of plasma cortisol [6]: 6 h

B1: IL-4: cytokine interleukin-4 (protein, UniProt P05112 25-153, looked up)
Interleukin-4: HKCDITLQEIIKTLNSLTEQKTLCTELTVTDIFAASKNTTEKETFCRAATVLRQFYSHHEKDTRCLGATAQQFHRHKQLIRFLKRLDRNLWGLAGLNSCPVKEANQSTLENFLERLKTIMREKYSKCSS
CD163 expression of cytokine given in combination with DEX over DEX treatment alone [1]: does not enhance CD163 expression

B2: IL-10: cytokine, originally known as cytokine synthesis inhibitory factor (protein, UniProt P22301 19-178, looked up)
Interleukin-10: SPGQGTQSENSCTHFPGNLPNMLRDLRDAFSRVKTFFQMKDQLDNLLLKESLLEDFKGYLGCQALSEMIQFYLEEVMPQAENQDPDIKAHVNSLGENLKTLRLRLRRCHRFLPCENKSKAVEQVKNAFNKLQEKGIYKAMSEFDIFINYIEAYMTMKIRN
CD163 expression of cytokine given in combination with DEX over DEX treatment alone [1]: significantly increased CD163 expression
increase of monocyte CD163 expression [1]: approximately 4 fold
CD163 expression by western blot [7]: increased expression of CD163
